What was measured:
Format in all cases: physicochemical
[1] = Gelling of water-immiscible cosmetic liquids in 96 well glass micro-titre plate; design: key: gel; g4: gel after overnight (18 hrs) storage at 4° C.; g22: gel after overnight (18 hrs) storage at 22° C.; sg: soft gel; sg22: soft gel after overnight (18 hrs) storage at 22° C.; solution; *: the test at 4° C. was not carried out; details: for gelling of ISA: 150° C. 2.5 hours, cooled to ambient
Method: In this Example, various samples of esterified cellobiose prepared as in Example 1 or 2 above, were used to gel water-immiscible cosmetic liquids, in accordance with the procedure given below, in which a large number of gels can be prepared simultaneously.
The samples were tested in a 96 well (8×12 rows) glass micro-titre plate. […] About 0.01 or 0.02 g of each esterified cellobiose material was placed into 8 consecutive wells in a single row, so that each well contained approximately 5% or 10% of the cellobiose ester. The balance in each well comprised the cosmetic liquid by addition of approximately 0.2 g of the respective liquid to each cell. A glass lid was placed on top of the plate. The plate was carefully placed in a thermostatically controlled fan-assisted oven set at 150° C. for 2.5 hours. The plate was removed from the oven and allowed to cool naturally to ambient laboratory temperature. The contents of the wells were assessed at the end of the cooling period, by visual inspection and by poking the contents of each well with a micro-spatula. The plates were stored at […] for 18 hours and the contents inspected, and further stored for 18 hours at 4° C. and inspected for a third time. The results obtained in the tests are summarised in Table 5 below, in which the legend is as follows: […]

[2] = Visual assessment score (clarity of gel in 1 cm cuvette); details: for Clarity Visual (assessment score): scale −12 to 8; for Visual: gel in 60:40 w/w Silkflo 364:DC245, score scale −12 to 8
Excerpt: A gel contained within a 1 cm thick cuvette was placed directly on to a sheet of white paper on which 21 sets of figures where printed in black. The size and thickness of the figures varied systematically and were numbered from −12 (the largest, thickest set) through 0 to 8 (the smallest thinnest set) The score given to each gel was the highest numbered set which could be read clearly through the gel, the higher the number, the higher the clarity.

[3] = Light transmission at 580 nm (% T); details: 580 nm
Method: The translucency of a composition may be measured by placing a sample of standardised thickness in the light path of a spectrophotometer and measuring transmittance, as a percentage of light transmitted in the absence of the gel.
This test was carried out using a dual-beam spectrophotometer. The sample of composition was poured hot into a 4.5 ml cuvette made of poly(methyl-methacrylate) (PMMA) and allowed to cool to an ambient temperature of 20-25° C. Such a cuvette gives a 1 cm thickness of composition. […] A transmittence measured at any temperature in the range from 20-25° C. is usually adequately accurate, but measurement is made at 22° C. if more precision is required.

[4] = Stability testing of gels: crystal growth visible by eye on storage at 37° C.
Method: Gels were made up using 10% structurant in a 60:40 mixture of Hydrogenated Polyisobutene (Panalene L14E):DC245. The gels, in sealed glass bottles, were left to stand for 18 hrs at room temperature, after which they were transferred to an oven thermostatically controlled to 37° C. Samples were checked periodically for signs of crystal growth visible by eye. REF1 is cellobiose octanonanoate.
Gels were made up and tested in accordance with the procedure in Example 6, as such or modified by employing a weight ratio of 9% of REF1 and 1% of an additional structurant as specified in Table 13 below.
The test procedure of Example 9 was repeated, but using ACB structurant REF2 alone as the structurant or to which a CHME structurant was added.

[5] = 5% cellobiose ester in Fluid AP
[6] = 5% cellobiose ester in Mineral oil
[7] = 5% cellobiose ester in Polydecene
[8] = 10% cellobiose ester in Fluid AP
[9] = 10% cellobiose ester in Mineral oil
[10] = 10% cellobiose ester in Polydecene
[11] = 9% REF2 and 1% of the specified ester in 60:40 hydrogenated polydecene:DC245
[12] = 60:40 hydrogenated polydecene:DC245 gelled with 9% REF2 and 1% of the specified cellobiose ester
[13] = 9% REF4 plus 1% of the named material in 60:40 hydrogenated polydecene:DC245
[14] = 9% REF4 plus 1% of the named material
[15] = Ex 2.6:REF 4 at stated weight ratio, total 10% in 60:40 w/w Silkflo 364NF:DC245

| Visual [2] | Compound | gelling of DC556 ([1]; 5% cellobiose ester in DC556) | gelling of Fluid AP [1, 5] | gelling of ISA ([1]; 5% cellobiose ester in ISA) | gelling of Mineral oil [1, 6] | gelling of Polydecene [1, 7] | gelling of DC556 ([1]; 10% cellobiose ester in DC556) | gelling of Fluid AP [1, 8] | gelling of ISA ([1]; 10% cellobiose ester in ISA) | gelling of Mineral oil [1, 9] | gelling of Polydecene [1, 10] | other results |
| --- | --- | --- | --- | --- | --- | --- | --- | --- | --- | --- | --- | --- |
| 3 | cellobiose heptanonanoate monocyclohexanoate [Ex 3.1] | – | – | – | – | – | – | – | – | – | – | – |
| 5 | cellobiose heptanonanoate monocyclohexanoate [Ex 3.2] | – | – | – | – | – | – | – | – | – | – | – |

Continued, compound first:

| Compound | Visual [2] | gelling of DC556 ([1]; 5% cellobiose ester in DC556) | gelling of Fluid AP [1, 5] | gelling of ISA ([1]; 5% cellobiose ester in ISA) | gelling of Mineral oil [1, 6] | gelling of Polydecene [1, 7] | gelling of DC556 ([1]; 10% cellobiose ester in DC556) | gelling of Fluid AP [1, 8] | gelling of ISA ([1]; 10% cellobiose ester in ISA) | gelling of Mineral oil [1, 9] | gelling of Polydecene [1, 10] | other results |
| --- | --- | --- | --- | --- | --- | --- | --- | --- | --- | --- | --- | --- |
| CCCCCCCCC(=O)OCC1OC(OC2C(COC(=O)CCCCCCCC)OC(OC(=O)c3ccc4ccccc4c3)C(OC(=O)CCCCCCCC)C2OC(=O)CCCCCCCC)C(OC(=O)CCCCCCCC)C(OC(=O)CCCCCCCC)C1OC(=O)CCCCCCCC (mixture of isomers) [Ex 1.4] | – | gel | gel | g22 | g22 | g22 | gel | gel | g22 | g22 | gel | gelling of Finsolv TN ([1]; 5% cellobiose ester in Finsolv TN): sol; gelling of IPM ([1]; 5% cellobiose ester in IPM): sol; gelling of Finsolv TN ([1]; 10% cellobiose ester in Finsolv TN): sol; gelling of IPM ([1]; 10% cellobiose ester in IPM): sol; Clarity Visual (assessment score) [2, 11]: slight haze >8; Clarity Visual (appearance) [2, 12]: transparent/; Clarity % T [3, 11]: 38% |
| CCCCCCCCCCCCCCCC(=O)OC1OC(COC(=O)CCCCCCCC)C(OC2OC(COC(=O)CCCCCCCC)C(OC(=O)CCCCCCCC)C(OC(=O)CCCCCCCC)C2OC(=O)CCCCCCCC)C(OC(=O)CCCCCCCC)C1OC(=O)CCCCCCCC (mixture of isomers) [Ex 1.8] | – | gel | gel | g22 | g22 | gel | gel | gel | g22 | g22 | gel | Observations ([4]; 9% of REF1 and 1% of additional structurant, after 15 days at 37° C.): No crystals after 15 days at 37 °C |
| CCCCCCCCCC(=O)OCC1OC(OC2C(COC(=O)CCCCCCCCC)OC(OC(=O)c3ccccc3)C(OC(=O)CCCCCCCCC)C2OC(=O)CCCCCCCCC)C(OC(=O)CCCCCCCCC)C(OC(=O)CCCCCCCCC)C1OC(=O)CCCCCCCCC (mixture of isomers) [Ex 2.6] | – | – | – | – | – | – | – | – | – | – | – | Clarity Visual (appearance) [2, 13]: translucent; Clarity Visual (assessment score) [2, 14]: −8; Clarity % T [3, 14]: 4.5% |
| CCCCCCCCCCCCCCCC(=O)OC1OC(COC(=O)CCCCCCCCC)C(OC2OC(COC(=O)CCCCCCCCC)C(OC(=O)CCCCCCCCC)C(OC(=O)CCCCCCCCC)C2OC(=O)CCCCCCCCC)C(OC(=O)CCCCCCCCC)C1OC(=O)CCCCCCCCC (mixture of isomers) [Ex 2.13] | – | gel | gel | gel | gel | gel | gel | gel | gel | gel | gel | – |
| CCCCCCCCC(=O)OCC1OC(OC2C(COC(=O)CCCCCCCC)OC(OC(=O)C3CCCCC3)C(OC(=O)CCCCCCCC)C2OC(=O)CCCCCCCC)C(OC(=O)CCCCCCCC)C(OC(=O)CCCCCCCC)C1OC(=O)CCCCCCCC (mixture of isomers) [Ex 3.3, cellobiose heptanonanoate monocyclohexanoate] | >8 | – | – | – | – | – | – | – | – | – | – | % T ([3]; gel in 60:40 w/w Silkflo 364:DC245): 53% |
| CCCCCCCCC(=O)OCC1OC(OC2C(COC(=O)CCCCCCCC)OC(OC(=O)C3CCCC3)C(OC(=O)CCCCCCCC)C2OC(=O)CCCCCCCC)C(OC(=O)CCCCCCCC)C(OC(=O)CCCCCCCC)C1OC(=O)CCCCCCCC (mixture of isomers) [Ex 3.5] | – | g22 | sg22 | sg22 | sol* | gel | gel | gel | g22 | gel | gel | – |
| CCCCCCCCCC(=O)OCC1OC(OC2C(COC(=O)CCCCCCCCC)OC(OC(=O)CCCCCCCCC)C(OC(=O)CCCCCCCCC)C2OC(=O)CCCCCCCCC)C(OC(=O)CCCCCCCCC)C(OC(=O)CCCCCCCCC)C1OC(=O)CCCCCCCCC (mixture of isomers) [REF 4, reference compound] | – | – | – | – | – | – | – | – | – | – | – | Clarity Visual (appearance) [2, 13]: opaque; Clarity Visual (assessment score) [2, 14]: < −12; Clarity Visual Score [2, 15]: <−12; Clarity % T [3, 14]: 0.36%; Clarity % T [3, 15]: 0.36% |
| CCCCCCCCC(=O)OCC1OC(O)C(OC(=O)CCCCCCCC)C(OC(=O)CCCCCCCC)C1OC1OC(COC(=O)CCCCCCCC)C(OC(=O)CCCCCCCC)C(OC(=O)CCCCCCCC)C1OC(=O)CCCCCCCC (mixture of isomers) [REF 5, reference compound] | – | – | – | – | – | – | – | – | – | – | – | Clarity Visual (assessment score) [2, 11]: translucent 4; Clarity Visual (appearance) [2, 12]: transparent/; Clarity % T [3, 11]: 31% |
| CCCCCCCCCC(=O)OCC1OC(O)C(OC(=O)CCCCCCCCC)C(OC(=O)CCCCCCCCC)C1OC1OC(COC(=O)CCCCCCCCC)C(OC(=O)CCCCCCCCC)C(OC(=O)CCCCCCCCC)C1OC(=O)CCCCCCCCC (mixture of isomers) [REF 6, reference compound] | – | – | – | – | – | – | – | – | – | – | – | Clarity Visual (appearance) [2, 13]: opaque; Clarity Visual (assessment score) [2, 14]: < −12; Clarity % T [3, 14]: 0.8% |
| CCCCCCCCC(=O)OC[C@H]1O[C@@H](O[C@H]2[C@H](OC(=O)CCCCCCCC)[C@@H](OC(=O)CCCCCCCC)C(OC(=O)CCCCCCCC)O[C@@H]2COC(=O)CCCCCCCC)[C@H](OC(=O)CCCCCCCC)[C@@H](OC(=O)CCCCCCCC)[C@@H]1OC(=O)CCCCCCCC (stereo partly drawn) [REF 1, cellobiose octanonanoate] | – | – | – | – | – | – | – | – | – | – | – | Observation ([4]; 10% structurant in 60:40 Hydrogenated Polyisobutene (Panalene L14E):DC245, after 18 hrs at RT): Small crystals visible in gel after; Observation ([4]; 10% structurant in 60:40 Hydrogenated Polyisobutene (Panalene L14E):DC245, after 18 hrs at RT, listed as REF1): Small crystals visible in gel after 18; Observation ([4]; 10% structurant in 60:40 Panalene L14E:DC245, after 6 hrs at 37° C.): More and bigger crystals after 6 hrs; Observation ([4]; 10% structurant in 60:40 Panalene L14E:DC245, after 6 hrs at 37° C., listed as REF1): More and bigger crystals after 6 hrs at; Observation ([4]; 10% structurant in 60:40 Panalene L14E:DC245, after 3 days at 37° C.): Crystals throughout gel after 3 days; Observation ([4]; 10% structurant in 60:40 Panalene L14E:DC245, after 3 days at 37° C., listed as REF1): 37° C.; Crystals throughout gel after 3 days |
| cellobiose heptanonanoate monocyclohexanoate [Ex 1.12] | 3 | – | – | – | – | – | – | – | – | – | – | – |
| cellobiose heptanonanoate monocyclohexanoate [Ex 1.13] | 6 | – | – | – | – | – | – | – | – | – | – | – |
| cellobiose heptanonanoate monocyclohexanoate [Ex 1.14] | 3 | gel | gel | g22 | gel | gel | gel | gel | gel | gel | gel | gelling of IPM ([1]; 5% cellobiose ester in IPM): sol; gelling of IPM ([1]; 10% cellobiose ester in IPM): g4 |

Source: US6974804B2, “Esters” (Unilever Home & Personal Care USA, division of Conopco, Inc., priority 2000, dated 2005)
